Laboratory results published in US8575158B2, “1-phenyl-substituted heterocyclyl derivatives and their use as prostaglandin D2 receptor modulators” (Actelion Pharmaceuticals Ltd., priority 2010, dated 2013).

Biological target: T1, hCRTH2 receptor (Homo sapiens, UniProt Q9Y5Y4)
T1 construct: expressed in transfected cells; host or cells: HEK293
T1 sequence (Q9Y5Y4 1-395): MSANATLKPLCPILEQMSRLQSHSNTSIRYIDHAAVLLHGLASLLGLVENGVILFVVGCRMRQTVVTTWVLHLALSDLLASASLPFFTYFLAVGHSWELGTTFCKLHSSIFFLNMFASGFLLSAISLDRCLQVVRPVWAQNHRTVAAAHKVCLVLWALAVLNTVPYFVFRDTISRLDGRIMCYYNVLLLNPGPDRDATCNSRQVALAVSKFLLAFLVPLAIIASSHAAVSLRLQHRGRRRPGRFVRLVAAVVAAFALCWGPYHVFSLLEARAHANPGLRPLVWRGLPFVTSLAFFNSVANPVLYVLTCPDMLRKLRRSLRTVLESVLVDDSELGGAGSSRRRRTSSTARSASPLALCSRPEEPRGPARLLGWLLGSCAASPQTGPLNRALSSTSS
Assay: Radioligand displacement assay (3H-PGD2) on hCRTH2 receptor membranes
Format: binding
Conditions: antagonistic activity

[1] = 3H-PGD2 radioligand displacement, HEK293-hCRTH2 membranes
[2] = 3H-PGD2 displacement on HEK293-hCRTH2 membrane fragments

O=C(O)COc1ccc(Cl)cc1[C@@H]1c2ccc(F)cc2CCN1C(=O)OCc1cccc(F)c1F [Example 354, (S)-1-(2-Carboxymethoxy-5-chloro-phenyl)-6-fluoro-3,4-dihydro-1H-isoquinoline-2-carboxylic acid 2,3-difluoro-benzyl ester]
IC50 [1]: 7.72 nM

O=C(O)COc1ccc(Cl)cc1C1c2ccccc2CCN1C(=O)COc1ccccc1-c1ccccc1 (racemic) [Example 86, (±)-(2-{2-[2-(Biphenyl-2-yloxy)-acetyl]-1,2,3,4-tetrahydro-isoquinolin-1-yl}-4-chloro-phenoxy)-acetic acid]
IC50 [2]: 422 nM

O=C(O)COc1cc2c(cc1C1c3ccccc3CCN1C(=O)OCc1ccccc1)OCO2 (racemic) [Example 23, (±)-1-(6-Carboxymethoxy-benzo[1,3]dioxol-5-yl)-3,4-dihydro-1H-isoquinoline-2-carboxylic acid benzyl ester]
IC50 [2]: 227 nM

Cc1conc1COC(=O)N1CCc2ccccc2[C@H]1c1cc(Cl)ccc1OCC(=O)O [Example 280, (S)-1-(2-Carboxymethoxy-5-chloro-phenyl)-3,4-dihydro-1H-isoquinoline-2-carboxylic acid 4-methyl-isoxazol-3-ylmethyl ester]
IC50 [2]: 0.35 nM

Cc1ccccc1CCC(=O)N1CCc2ccccc2C1c1cc(Cl)ccc1OCC(=O)O (racemic) [Example 104, (±)-{4-Chloro-2-[2-(3-o-tolyl-propionyl)-1,2,3,4-tetrahydro-isoquinolin-1-yl]-phenoxy}-acetic acid]
IC50 [2]: 28.6 nM

Cc1nc2ccccc2n1CCOC(=O)N1CCc2ccccc2[C@H]1c1cc(Cl)ccc1OCC(=O)O [Example 293]
IC50 [1]: 98.1 nM

O=C(O)COc1ccc(Cl)cc1C1c2ccccc2CCN1C(=O)Cn1cnc2ccccc21 (racemic) [Example 78, (±)-{2-[2-(2-Benzoimidazol-1-yl-acetyl)-1,2,3,4-tetrahydro-isoquinolin-1-yl]-4-chloro-phenoxy}-acetic acid]
IC50 [2]: 51.1 nM

O=C(O)COc1ccc(Cl)cc1C1c2ccccc2CN1C(=O)CCN1CCCc2ccccc21 (racemic) [Example 515]
IC50 [1]: 60.1 nM

O=C(O)COc1ccc(Cl)cc1C1c2ccccc2CCN1C(=O)COc1cccnc1OCCO (racemic) [Example 475]
IC50 [1]: 337 nM

Cc1cc(COC(=O)N2CCc3ccccc3[C@H]2c2cc(Cl)ccc2OCC(=O)O)on1 [Example 279, (S)-1-(2-Carboxymethoxy-5-chloro-phenyl)-3,4-dihydro-1H-isoquinoline-2-carboxylic acid 3-methyl-isoxazol-5-ylmethyl ester]
IC50 [2]: 0.87 nM

Cc1cnc(COC(=O)N2CCc3cc(F)ccc3[C@H]2c2cc(Cl)ccc2OCC(=O)O)s1 [Example 326, (S)-1-(2-Carboxymethoxy-5-chloro-phenyl)-6-fluoro-3,4-dihydro-1H-isoquinoline-2-carboxylic acid 5-methyl-thiazol-2-ylmethyl ester]
IC50 [1]: 8.67 nM

O=C(O)COc1ccc(Cl)cc1C1c2ccccc2CN1C(=O)NCc1ccccc1 (racemic) [Example 555]
IC50 [1]: 14.5 nM

O=C(O)COc1ccc(Cl)cc1C1c2ccccc2CCN1C(=O)Cn1ccc2ccccc21 (racemic) [Example 72, (±)-{4-Chloro-2-[2-(2-indol-1-yl-acetyl)-1,2,3,4-tetrahydro-isoquinolin-1-yl]-phenoxy}-acetic acid]
IC50 [2]: 44 nM

O=C(O)COc1ccc(Cl)cc1C1c2ccccc2CN1C(=O)C1CC1c1ccccc1F (stereo not drawn) [Example 525, (4-Chloro-2-{2-trans-[2-(2-fluoro-phenyl)-cyclopropanecarbonyl]-2,3-dihydro-1H-isoindol-1-yl}-phenoxy)-acetic acid]
IC50 [1]: 13.5 nM

O=C(O)COc1ccc(-n2ccnn2)cc1C1c2ccccc2CCN1C(=O)OCc1ccccc1 (racemic) [Example 223, (±)-1-(2-Carboxymethoxy-5-[1,2, 3]triazol-1-yl-phenyl)-3,4-dihydro-1H-isoquinoline-2-carboxylic acid benzyl ester]
IC50 [2]: 7.01 nM

O=C(O)COc1ccc(Cl)cc1C1c2ccccc2CN1C(=O)COCc1ccccc1Cl (racemic) [Example 521]
IC50 [1]: 9.11 nM

N#Cc1ccc(OCC(=O)O)c(C2c3ccccc3CCN2C(=O)OCc2ccccc2)c1 (racemic) [Example 219, (±)-1-(2-Carboxymethoxy-5-cyano-phenyl)-3,4-dihydro-1H-isoquinoline-2-carboxylic acid benzyl ester]
IC50 [2]: 4.72 nM

O=C(OCc1ccccc1)N1CCc2ccccc2[C@H]1c1cc(Cl)ccc1OCc1n[nH]c(=O)o1 [Example 571, (S)-1-[5-Chloro-2-(5-oxo-4,5-dihydro-[1,3,4]oxadiazol-2-ylmethoxy)-phenyl]-3,4-dihydro-1H-isoquinoline-2-carboxylic acid benzyl ester]
IC50 (radioligand displacement (3H-PGD2), hCRTH2 receptor membranes): 55 nM

COc1ccccc1OCC(=O)N1CCc2ccccc2C1c1cc(Cl)ccc1OCC(=O)O (racemic) [Example 406]
IC50 [1]: 26.8 nM

O=C(O)COc1ccc(Cl)cc1C1c2ccccc2CCN1C(=O)NCc1ccccc1Cl (racemic) [Example 490]
IC50 [1]: 15.1 nM

O=C(O)COc1ccc(Cl)cc1C1c2ccccc2CCN1C(=O)CCc1nccn1-c1ccccc1 (racemic) [Example 83, (±)-(4-Chloro-2-{2-[3-(1-phenyl-1H-imidazol-2-yl)-propionyl]-1,2,3,4-tetrahydro-isoquinolin-1-yl}-phenoxy)-acetic acid]
IC50 [2]: 422 nM

COc1ccc(OCC(=O)N2CCc3ccccc3C2c2cc(Cl)ccc2OCC(=O)O)cn1 (racemic) [Example 486]
IC50 [1]: 371 nM

O=C(O)COc1ccc(Cl)cc1C1c2ccccc2CCN1C(=O)C1=Cc2ccccc2OC1 (racemic) [Example 69, (±)-{4-Chloro-2-[2-(2H-chromene-3-carbonyl)-1,2,3,4-tetrahydro-isoquinolin-1-yl]-phenoxy}-acetic acid]
IC50 [2]: 377 nM

Cc1cccc([C@@H]2C[C@H]2C(=O)N2CCc3ccccc3C2c2cc(Cl)ccc2OCC(=O)O)c1 (mixture of isomers) [Example 427]
IC50 [1]: 46.6 nM

Cc1cccc(OCCC(=O)N2CCc3ccccc3C2c2cc(Cl)ccc2OCC(=O)O)c1 (racemic) [Example 94, (±)-{4-Chloro-2-[2-(3-m-tolyloxy-propionyl)-1,2,3,4-tetrahydro-isoquinolin-1-yl]-phenoxy}-acetic acid]
IC50 [2]: 16.2 nM

O=C(O)COc1ccc(Cl)cc1C1c2ccccc2CN1C(=O)CCOc1ccc(F)cc1 (racemic) [Example 520]
IC50 [1]: 130 nM

COc1ccc2[nH]c(CC(=O)N3CCc4ccccc4C3c3cc(Cl)ccc3OCC(=O)O)cc2c1 (racemic) [Example 99, (±)-(4-Chloro-2-{2-[2-(5-methoxy-1H-indol-2-yl)-acetyl]-1,2,3,4-tetrahydro-isoquinolin-1-yl}-phenoxy)-acetic acid]
IC50 [2]: 296 nM

O=C(O)COc1ccc(Cl)cc1C1c2ccccc2CCN1C(=O)C1CC1c1ccccc1C(F)(F)F (single isomer, unassigned) [Example 155, (±)-(4-Chloro-2-{2-[(trans)-2-(2-trifluoromethyl-phenyl)-cyclopropanecarbonyl]-1,2,3,4-tetrahydro-iso-quinolin-1-yl}-phenoxy)-acetic acid (diatereoisomer 1)]
IC50 [2]: 166 nM

O=C(O)COc1ccc(Cl)cc1C1c2ccccc2CN1C(=O)OCc1ccccc1 (racemic) [Example 230]
IC50 [2]: 12.8 nM

COc1ccc2c(CC(=O)N3CCc4ccccc4C3c3cc(Cl)ccc3OCC(=O)O)coc2c1 (racemic) [Example 92, (±)-(4-Chloro-2-{2-[2-(6-methoxy-benzofuran-3-yl)-acetyl]-1,2,3,4-tetrahydro-isoquinolin-1-yl}-phenoxy)-acetic acid]
IC50 [2]: 2.86 nM

O=C(O)COc1ccc(F)cc1C1c2ccccc2CCN1C(=O)Cc1ccc2ncccc2c1 (racemic) [Example 49, (±)-{4-Fluoro-2-[2-(2-quinolin-6-yl-acetyl)-1,2,3,4-tetrahydro-isoquinolin-1-yl]-phenoxy}-acetic acid]
IC50 [2]: 35.7 nM

O=C(O)COc1ccc(Cl)cc1C1c2ccccc2CN1C(=O)C1CC1c1cccc(F)c1 (stereo not drawn) [Example 523, (4-Chloro-2-{2-trans-[2-(3-fluoro-phenyl)-cyclopropanecarbonyl]-2,3-dihydro-1H-isoindol-1-yl}-phenoxy)-acetic acid]
IC50 [1]: 40.5 nM

COCCOC(=O)N1CCc2ccccc2C1c1cc(F)ccc1OCC(=O)O (racemic) [Example 172]
IC50 [2]: 59.8 nM

O=C(O)COc1ccc(Cl)cc1C1c2ccccc2CN1C(=O)C1CC1c1ccccc1 (stereo not drawn) [Example 503, {4-Chloro-2-[2-trans-(2-phenyl-cyclopropanecarbonyl)-2,3-dihydro-1H-isoindol-1-yl]-phenoxy}-acetic acid]
IC50 [1]: 11.2 nM

O=C(O)COc1ccc(Cl)cc1C1c2ccccc2CCN1C(=O)CCn1ccc2c(F)cccc21 (racemic) [Example 387]
IC50 [1]: 36.7 nM

CC(C)(C)COC(=O)N1CCc2ccccc2C1c1cc(F)ccc1OCC(=O)O (racemic) [Example 166]
IC50 [2]: 120 nM

O=C(O)COc1ccc(Cl)cc1C1c2ccccc2CCN1C(=O)[C@@H]1C[C@H]1c1ccc(C(F)(F)F)cc1 (mixture of isomers) [Example 419]
IC50 [1]: 958 nM

O=C(O)COc1ccc(Cl)cc1C1c2cccc(F)c2CCN1C(=O)COCc1ccccc1 (racemic) [Example 119, (±)-{2-[2-(2-Benzyloxy-acetyl)-5-fluoro-1,2,3,4-tetrahydro-isoquinolin-1-yl]-4-chloro-phenoxy}-acetic acid]
IC50 [2]: 30.9 nM
